Source: US20070178151A1, “Spray dried pharmaceutical compositions” (priority 2004, published 2007)
Converted amounts (≈) assume the structure as drawn.

Assay: aqueous solubility of talnetant
Assay type: physicochemical
Conditions: aqueous medium
Source text: Typically drugs with low aqueous solubility are absorbed slowly across the walls of the gastrointestinal tract (GIT) due to poor dissolution of the solid in the GIT leading to a small diffusive driving force.

## CC[C@H](NC(=O)c1c(O)c(-c2ccccc2)nc2ccccc12)c1ccccc1 [Talnetant, (S)-(−)-N-(α-ethylbenzyl)-3-hydroxy-2-phenylquinoline4-carboxamide]
Aqueous buffer, pH 7.0
  solubility: ~1 µg/mL (≈ 2.61 µM)
pH 1, simulated gastric fluid
  solubility: ~30 µg/mL (≈ 78.4 µM)
